The source of these data is publication PMC12748989 (Nature Communications, 2025).

One test has as its system PBMC. Particulars: 12.5 µM.

As for `CC[C@H](C)[C@H](N)C(=O)N[C@@H](CC(N)=O)C(=O)N[C@@H](CC(C)C)C(=O)N[C@@H](CCCCN)C(=O)N[C@@H](C)C(=O)N[C@@H](CC(C)C)C(=O)N[C@@H](C)C(=O)N[C@@H](C)C(=O)N[C@@H](CC(C)C)C(=O)N[C@@H](C)C(=O)N[C@@H](CCCCN)C(=O)N[C@H](C(=O)N[C@H](C(=O)N[C@@H](CC(C)C)C(N)=O)[C@@H](C)CC)C(C)C` [V12], the “Average (percentage cell inhibition), Dmastoparan MDA-MB231 12.5uM” value in the test with MDA-MB-231 cells came out at 51.0657%. Besides, in the test with PBMC, the “Average (percentage cell inhibition), Mastoparan PBMC” value stood at 18.2596%.

Consider `CC[C@H](C)[C@H](N)C(=O)N[C@@H](CC(N)=O)C(=O)N[C@@H](CC(C)C)C(=O)N[C@@H](CCCCN)C(=O)N[C@@H](C)C(=O)N[C@@H](CC(C)C)C(=O)N[C@@H](C)C(=O)N[C@@H](C)C(=O)N[C@@H](CC(C)C)C(=O)N[C@@H](C)C(=O)N[C@@H](CCCCN)C(=O)N[C@@H](CCCCN)C(=O)N[C@H](C(=O)N[C@@H](CC(C)C)C(N)=O)C(C)C` [V13], for which the “Average (percentage cell inhibition), Dmastoparan MDA-MB231 12.5uM” value with MDA-MB-231 cells was determined as 38.0334%. Besides, in the test on PBMC, the “Average (percentage cell inhibition), Mastoparan PBMC” value was 11.5837%.

On to `CC[C@H](C)[C@H](N)C(=O)N[C@@H](CC(N)=O)C(=O)N[C@@H](CC(C)C)C(=O)N[C@@H](CCCCN)C(=O)N[C@@H](C)C(=O)N[C@@H](CC(C)C)C(=O)N[C@@H](C)C(=O)N[C@@H](C)C(=O)N[C@@H](CC(C)C)C(=O)N[C@@H](C)C(=O)N[C@@H](CCCCN)C(=O)N[C@@H](CCCCN)C(=O)N[C@H](C(=O)N[C@H](C(N)=O)C(C)C)[C@@H](C)CC` [V14], for which the “Average (percentage cell inhibition), Dmastoparan MDA-MB231 12.5uM” value in the test on MDA-MB-231 cells came to 42.849%. Also, the “Average (percentage cell inhibition), Mastoparan PBMC” value in the test with PBMC was found to be 3.082%.

As for `CC[C@H](C)[C@H](NC(=O)[C@H](CCCCN)NC(=O)[C@H](CCCCN)NC(=O)[C@H](C)NC(=O)[C@H](CC(C)C)NC(=O)[C@H](C)NC(=O)[C@H](C)NC(=O)[C@H](CC(C)C)NC(=O)[C@H](C)NC(=O)[C@H](CCCCN)NC(=O)[C@H](CC(C)C)NC(=O)[C@H](CC(N)=O)NC(=O)[C@@H](N)Cc1c[nH]c2ccccc12)C(=O)N[C@@H](CC(C)C)C(N)=O` [W1], the “Average (percentage cell inhibition), Dmastoparan MDA-MB231 12.5uM” value with MDA-MB-231 cells was 42.4034%. In addition, in the test with PBMC, the “Average (percentage cell inhibition), Mastoparan PBMC” value is 19.8521%.

As for `CC[C@H](C)[C@H](N)C(=O)N[C@@H](Cc1c[nH]c2ccccc12)C(=O)N[C@@H](CC(C)C)C(=O)N[C@@H](CCCCN)C(=O)N[C@@H](C)C(=O)N[C@@H](CC(C)C)C(=O)N[C@@H](C)C(=O)N[C@@H](C)C(=O)N[C@@H](CC(C)C)C(=O)N[C@@H](C)C(=O)N[C@@H](CCCCN)C(=O)N[C@@H](CCCCN)C(=O)N[C@H](C(=O)N[C@@H](CC(C)C)C(N)=O)[C@@H](C)CC` [W2], in the test with MDA-MB-231 cells, the “Average (percentage cell inhibition), Dmastoparan MDA-MB231 12.5uM” value amounted to 98.3458%. Also, in the test on PBMC, the “Average (percentage cell inhibition), Mastoparan PBMC” value is 92.9669%.

Consider `CC[C@H](C)[C@H](N)C(=O)N[C@@H](CC(N)=O)C(=O)N[C@@H](Cc1c[nH]c2ccccc12)C(=O)N[C@@H](CCCCN)C(=O)N[C@@H](C)C(=O)N[C@@H](CC(C)C)C(=O)N[C@@H](C)C(=O)N[C@@H](C)C(=O)N[C@@H](CC(C)C)C(=O)N[C@@H](C)C(=O)N[C@@H](CCCCN)C(=O)N[C@@H](CCCCN)C(=O)N[C@H](C(=O)N[C@@H](CC(C)C)C(N)=O)[C@@H](C)CC` [W3], for which the “Average (percentage cell inhibition), Dmastoparan MDA-MB231 12.5uM” value in the test on MDA-MB-231 cells was found to be 65.1242%. The “Average (percentage cell inhibition), Mastoparan PBMC” value in the test with PBMC is on record as 22.6054%.

With `CC[C@H](C)[C@H](N)C(=O)N[C@@H](CC(N)=O)C(=O)N[C@@H](CC(C)C)C(=O)N[C@@H](Cc1c[nH]c2ccccc12)C(=O)N[C@@H](C)C(=O)N[C@@H](CC(C)C)C(=O)N[C@@H](C)C(=O)N[C@@H](C)C(=O)N[C@@H](CC(C)C)C(=O)N[C@@H](C)C(=O)N[C@@H](CCCCN)C(=O)N[C@@H](CCCCN)C(=O)N[C@H](C(=O)N[C@@H](CC(C)C)C(N)=O)[C@@H](C)CC` [W4], the “Average (percentage cell inhibition), Dmastoparan MDA-MB231 12.5uM” value in the test with MDA-MB-231 cells is given as 50.1282%. Besides, the “Average (percentage cell inhibition), Mastoparan PBMC” value in the test on PBMC was determined as 30.4839%.

With `CC[C@H](C)[C@H](N)C(=O)N[C@@H](CC(N)=O)C(=O)N[C@@H](CC(C)C)C(=O)N[C@@H](CCCCN)C(=O)N[C@@H](Cc1c[nH]c2ccccc12)C(=O)N[C@@H](CC(C)C)C(=O)N[C@@H](C)C(=O)N[C@@H](C)C(=O)N[C@@H](CC(C)C)C(=O)N[C@@H](C)C(=O)N[C@@H](CCCCN)C(=O)N[C@@H](CCCCN)C(=O)N[C@H](C(=O)N[C@@H](CC(C)C)C(N)=O)[C@@H](C)CC` [W5], in the test with MDA-MB-231 cells, the “Average 6.5uM” value was 75.0546% and the “Average (percentage cell inhibition), Dmastoparan MDA-MB231 12.5uM” value is reported as 97.3063%. Also, the “Average (percentage cell inhibition), Mastoparan PBMC” value in the test on PBMC was found to be 88.7179%.

For `CC[C@H](C)[C@H](N)C(=O)N[C@@H](CC(N)=O)C(=O)N[C@@H](CC(C)C)C(=O)N[C@@H](CCCCN)C(=O)N[C@@H](C)C(=O)N[C@@H](Cc1c[nH]c2ccccc12)C(=O)N[C@@H](C)C(=O)N[C@@H](C)C(=O)N[C@@H](CC(C)C)C(=O)N[C@@H](C)C(=O)N[C@@H](CCCCN)C(=O)N[C@@H](CCCCN)C(=O)N[C@H](C(=O)N[C@@H](CC(C)C)C(N)=O)[C@@H](C)CC` [W6], the “Average (percentage cell inhibition), Dmastoparan MDA-MB231 12.5uM” value in the test on MDA-MB-231 cells came to 42.8966%. In addition, in the test on PBMC, the “Average (percentage cell inhibition), Mastoparan PBMC” value came to 18.297%.

With `CC[C@H](C)[C@H](N)C(=O)N[C@@H](CC(N)=O)C(=O)N[C@@H](CC(C)C)C(=O)N[C@@H](CCCCN)C(=O)N[C@@H](C)C(=O)N[C@@H](CC(C)C)C(=O)N[C@@H](Cc1c[nH]c2ccccc12)C(=O)N[C@@H](C)C(=O)N[C@@H](CC(C)C)C(=O)N[C@@H](C)C(=O)N[C@@H](CCCCN)C(=O)N[C@@H](CCCCN)C(=O)N[C@H](C(=O)N[C@@H](CC(C)C)C(N)=O)[C@@H](C)CC` [W7], the “Average (percentage cell inhibition), Dmastoparan MDA-MB231 12.5uM” value in the test with MDA-MB-231 cells is 92.6725%. In the test on PBMC, the “Average (percentage cell inhibition), Mastoparan PBMC” value amounted to 70.534%.

In the case of `CC[C@H](C)[C@H](N)C(=O)N[C@@H](CC(N)=O)C(=O)N[C@@H](CC(C)C)C(=O)N[C@@H](CCCCN)C(=O)N[C@@H](C)C(=O)N[C@@H](CC(C)C)C(=O)N[C@@H](C)C(=O)N[C@@H](Cc1c[nH]c2ccccc12)C(=O)N[C@@H](CC(C)C)C(=O)N[C@@H](C)C(=O)N[C@@H](CCCCN)C(=O)N[C@@H](CCCCN)C(=O)N[C@H](C(=O)N[C@@H](CC(C)C)C(N)=O)[C@@H](C)CC` [W8], in the test on MDA-MB-231 cells, the “Average (percentage cell inhibition), Dmastoparan MDA-MB231 12.5uM” value came to 62.4515%. Moreover, the “Average (percentage cell inhibition), Mastoparan PBMC” value with PBMC is given as 51.7838%.

On to `CC[C@H](C)[C@H](N)C(=O)N[C@@H](CC(N)=O)C(=O)N[C@@H](CC(C)C)C(=O)N[C@@H](CCCCN)C(=O)N[C@@H](C)C(=O)N[C@@H](CC(C)C)C(=O)N[C@@H](C)C(=O)N[C@@H](C)C(=O)N[C@@H](Cc1c[nH]c2ccccc12)C(=O)N[C@@H](C)C(=O)N[C@@H](CCCCN)C(=O)N[C@@H](CCCCN)C(=O)N[C@H](C(=O)N[C@@H](CC(C)C)C(N)=O)[C@@H](C)CC` [W9], for which, in the test on MDA-MB-231 cells, the “Average (percentage cell inhibition), Dmastoparan MDA-MB231 12.5uM” value is recorded as 26.5648%. In addition, the “Average (percentage cell inhibition), Mastoparan PBMC” value in the test on PBMC was determined as 6.531%.

With `CC[C@H](C)[C@H](N)C(=O)N[C@@H](CC(N)=O)C(=O)N[C@@H](CC(C)C)C(=O)N[C@@H](CCCCN)C(=O)N[C@@H](C)C(=O)N[C@@H](CC(C)C)C(=O)N[C@@H](C)C(=O)N[C@@H](C)C(=O)N[C@@H](CC(C)C)C(=O)N[C@@H](Cc1c[nH]c2ccccc12)C(=O)N[C@@H](CCCCN)C(=O)N[C@@H](CCCCN)C(=O)N[C@H](C(=O)N[C@@H](CC(C)C)C(N)=O)[C@@H](C)CC` [W10], in the test with MDA-MB-231 cells, the “Average (percentage cell inhibition), Dmastoparan MDA-MB231 12.5uM” value is reported as 49.5675%. Besides, in the test with PBMC, the “Average (percentage cell inhibition), Mastoparan PBMC” value amounted to 15.3863%.

As for `CC[C@H](C)[C@H](N)C(=O)N[C@@H](CC(N)=O)C(=O)N[C@@H](CC(C)C)C(=O)N[C@@H](CCCCN)C(=O)N[C@@H](C)C(=O)N[C@@H](CC(C)C)C(=O)N[C@@H](C)C(=O)N[C@@H](C)C(=O)N[C@@H](CC(C)C)C(=O)N[C@@H](C)C(=O)N[C@@H](Cc1c[nH]c2ccccc12)C(=O)N[C@@H](CCCCN)C(=O)N[C@H](C(=O)N[C@@H](CC(C)C)C(N)=O)[C@@H](C)CC` [W11], in the test with MDA-MB-231 cells, the “Average (percentage cell inhibition), Dmastoparan MDA-MB231 12.5uM” value is 74.1582%. Also, the “Average (percentage cell inhibition), Mastoparan PBMC” value in the test with PBMC was found to be 64.4734%.

Take `CC[C@H](C)[C@H](N)C(=O)N[C@@H](CC(N)=O)C(=O)N[C@@H](CC(C)C)C(=O)N[C@@H](CCCCN)C(=O)N[C@@H](C)C(=O)N[C@@H](CC(C)C)C(=O)N[C@@H](C)C(=O)N[C@@H](C)C(=O)N[C@@H](CC(C)C)C(=O)N[C@@H](C)C(=O)N[C@@H](CCCCN)C(=O)N[C@@H](Cc1c[nH]c2ccccc12)C(=O)N[C@H](C(=O)N[C@@H](CC(C)C)C(N)=O)[C@@H](C)CC` [W12]: the “Average (percentage cell inhibition), Dmastoparan MDA-MB231 12.5uM” value with MDA-MB-231 cells turned out to be 64.637%. Moreover, the “Average (percentage cell inhibition), Mastoparan PBMC” value in the test with PBMC was 73.0011%.

For the compound `CC[C@H](C)[C@H](N)C(=O)N[C@@H](CC(N)=O)C(=O)N[C@@H](CC(C)C)C(=O)N[C@@H](CCCCN)C(=O)N[C@@H](C)C(=O)N[C@@H](CC(C)C)C(=O)N[C@@H](C)C(=O)N[C@@H](C)C(=O)N[C@@H](CC(C)C)C(=O)N[C@@H](C)C(=O)N[C@@H](CCCCN)C(=O)N[C@@H](CCCCN)C(=O)N[C@@H](Cc1c[nH]c2ccccc12)C(=O)N[C@@H](CC(C)C)C(N)=O` [W13], the “Average (percentage cell inhibition), Dmastoparan MDA-MB231 12.5uM” value in the test on MDA-MB-231 cells was determined as 70.7641%. Besides, the “Average (percentage cell inhibition), Mastoparan PBMC” value in the test with PBMC is on record as 24.9289%.

On to `CC[C@H](C)[C@H](N)C(=O)N[C@@H](CC(N)=O)C(=O)N[C@@H](CC(C)C)C(=O)N[C@@H](CCCCN)C(=O)N[C@@H](C)C(=O)N[C@@H](CC(C)C)C(=O)N[C@@H](C)C(=O)N[C@@H](C)C(=O)N[C@@H](CC(C)C)C(=O)N[C@@H](C)C(=O)N[C@@H](CCCCN)C(=O)N[C@@H](CCCCN)C(=O)N[C@H](C(=O)N[C@@H](Cc1c[nH]c2ccccc12)C(N)=O)[C@@H](C)CC` [W14], for which the “Average (percentage cell inhibition), Dmastoparan MDA-MB231 12.5uM” value with MDA-MB-231 cells is on record as 56.1495%. In addition, in the test on PBMC, the “Average (percentage cell inhibition), Mastoparan PBMC” value is given as 13.9862%.

`CC[C@H](C)[C@H](NC(=O)[C@H](CCCCN)NC(=O)[C@H](CCCCN)NC(=O)[C@H](C)NC(=O)[C@H](CC(C)C)NC(=O)[C@H](C)NC(=O)[C@H](C)NC(=O)[C@H](CC(C)C)NC(=O)[C@H](C)NC(=O)[C@H](CCCCN)NC(=O)[C@H](CC(C)C)NC(=O)[C@H](CC(N)=O)NC(=O)[C@@H](N)Cc1ccc(O)cc1)C(=O)N[C@@H](CC(C)C)C(N)=O` [Y1]: in the test on MDA-MB-231 cells, the “Average (percentage cell inhibition), Dmastoparan MDA-MB231 12.5uM” value is 48.2987%. Further, the “Average (percentage cell inhibition), Mastoparan PBMC” value in the test with PBMC is 14.8394%.
